Assay results as given in article PMC11956017, “Design of Benzyl-triazolopyrimidine-Based NADPH Oxidase Inhibitors Leads to the Discovery of a Potent Dual Covalent NOX2/MAOB Inhibitor” (Journal of Medicinal Chemistry, 2025).

Legend:
NOX2 = NOX2 (Homo sapiens, UniProt P04839); experiment: Human NOX2 isolated membranes, MCLA assay; assay type: biochemical; parameters: NOX2 was expressed as native protein in X-CGD PLB-985 cells transduced with the RD114 pseudotyped MFGS-NOX2 vector; expressed in transfected cells; host or cells: X-CGD PLB-985 cells transduced with MFGS-NOX2; isolated membranes; Cytosolic proteins made in E. coli; conditions: membrane-embedded; 240 μM NADPH; read-out: IC50 on human NOXs, NOX2 (MCLA)
Procedure: IC50 determinations were performed as described, with the same aforementioned modifications for covalent inhibition. Briefly, 20 μg of NOX2-p22^phox membranes was added to a reaction mix with a 65 mM sodium phosphate buffer (pH 7.0), 0.5 μM FAD, 130 μM LiDS, 160 nM p67^phox, p47^phox, Rac1 Q61L, and 1 μM MCLA or 200 μM bovine cytochrome c. The estimated final protein concentration based on the heme’s absorbance was 60 nM. Compounds were incubated for 1 h at 25 °C, at varying concentrations. The reaction started by adding 240 μM NADPH, and measurements were taken by using a GloMax plate reader (Promega; MCLA) or a Cary 100 UV–vis spectrophotometer (Varian; cytochrome c).

human NOX4 = biological target: T1, human NOX4 (Homo sapiens, UniProt Q9NPH5); experiment: Human NOX4 isolated membranes, Amplex Red/horseradish peroxidase coupled assay; assay type: biochemical; conditions: membrane-embedded; 40 μM NADPH; read-out: IC50 on human NOXs, NOX4 (AMPLEX RED)
T1 construct: expressed in transfected cells; host or cells: HEK293 F cells, transient transfection (pTT22 and pYD7 vectors); isolated membranes
T1 sequence (Q9NPH5 1-578): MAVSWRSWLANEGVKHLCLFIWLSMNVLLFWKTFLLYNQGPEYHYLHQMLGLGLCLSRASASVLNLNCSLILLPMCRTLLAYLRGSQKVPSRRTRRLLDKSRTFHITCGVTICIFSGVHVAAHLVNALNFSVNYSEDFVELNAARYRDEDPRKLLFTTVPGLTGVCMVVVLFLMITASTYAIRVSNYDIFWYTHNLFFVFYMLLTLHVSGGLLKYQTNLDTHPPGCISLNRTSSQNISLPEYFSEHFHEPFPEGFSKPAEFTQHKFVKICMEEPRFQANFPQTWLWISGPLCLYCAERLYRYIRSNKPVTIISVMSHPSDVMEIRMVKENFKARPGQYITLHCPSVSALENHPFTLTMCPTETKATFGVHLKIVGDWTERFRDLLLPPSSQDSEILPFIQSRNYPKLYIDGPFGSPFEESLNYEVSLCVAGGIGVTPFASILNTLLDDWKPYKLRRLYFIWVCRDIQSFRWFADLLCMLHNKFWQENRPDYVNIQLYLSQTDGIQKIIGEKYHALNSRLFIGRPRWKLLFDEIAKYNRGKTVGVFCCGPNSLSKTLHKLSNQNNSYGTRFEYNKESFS
T1 sequence (P13498 1-195 partner): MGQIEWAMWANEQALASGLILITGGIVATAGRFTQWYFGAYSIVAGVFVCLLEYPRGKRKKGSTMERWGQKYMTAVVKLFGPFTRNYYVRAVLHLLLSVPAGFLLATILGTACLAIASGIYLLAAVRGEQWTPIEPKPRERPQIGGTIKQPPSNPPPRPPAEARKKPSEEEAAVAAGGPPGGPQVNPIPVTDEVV
Procedure: (§1) Activity assays for IC50 determinations were performed as previously described[40],[42] with modifications for covalent inhibitors. […] The estimated final protein concentrations based on the heme’s absorbance (ε414 nm = 131,000 M^–1 cm^–1) were 10–20 nM. Compounds were incubated for 1 h at 25 °C at varying concentrations, and reactions were initiated with 40 μM NADPH. Fluorescence was measured using a ClarioStar plate reader (excitation 572 nm/emission 583 nm).

human NOX5 = biological target: T2, human NOX5 (Homo sapiens, UniProt Q96PH1); experiment: Human NOX5 isolated membranes, Amplex Red/horseradish peroxidase coupled assay; assay type: biochemical; conditions: membrane-embedded; 40 μM NADPH; read-out: IC50 on human NOXs, NOX5 (AMPLEX RED)
T2 construct: expressed in transfected cells; host or cells: HEK293 F cells, transient transfection (pEG BacMam vector); isolated membranes
T2 sequence (Q96PH1 1-719 isoform Q96PH1-4): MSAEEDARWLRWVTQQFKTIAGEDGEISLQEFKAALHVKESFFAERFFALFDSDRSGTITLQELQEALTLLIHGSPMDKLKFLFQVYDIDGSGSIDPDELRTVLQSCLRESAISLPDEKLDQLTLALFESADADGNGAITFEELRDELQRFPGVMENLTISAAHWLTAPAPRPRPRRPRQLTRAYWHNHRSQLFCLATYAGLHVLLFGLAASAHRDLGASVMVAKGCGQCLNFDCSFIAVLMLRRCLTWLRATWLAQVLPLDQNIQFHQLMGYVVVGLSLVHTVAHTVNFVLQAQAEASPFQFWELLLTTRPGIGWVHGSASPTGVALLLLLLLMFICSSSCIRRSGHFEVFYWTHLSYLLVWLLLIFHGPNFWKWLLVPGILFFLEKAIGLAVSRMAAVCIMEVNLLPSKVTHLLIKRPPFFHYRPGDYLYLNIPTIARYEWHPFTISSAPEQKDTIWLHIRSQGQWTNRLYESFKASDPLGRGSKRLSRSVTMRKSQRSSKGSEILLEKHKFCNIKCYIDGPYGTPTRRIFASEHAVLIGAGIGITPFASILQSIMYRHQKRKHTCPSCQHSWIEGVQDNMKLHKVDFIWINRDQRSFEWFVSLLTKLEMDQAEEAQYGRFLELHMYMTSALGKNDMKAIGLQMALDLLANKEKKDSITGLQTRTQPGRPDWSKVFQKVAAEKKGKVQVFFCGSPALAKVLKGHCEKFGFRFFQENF
Procedure: as §1

human NOX1 = biological target: T3, human NOX1 (Homo sapiens, UniProt Q9Y5S8); experiment: Human NOX1 isolated membranes, Amplex Red/horseradish peroxidase coupled assay; assay type: biochemical; conditions: membrane-embedded; 40 μM NADPH; read-out: IC50 on human NOXs, NOX1 (AMPLEX RED)
T3 construct: expressed in transfected cells; host or cells: HEK293 F cells, transient transfection (pEG BacMam vector); isolated membranes; Cytosolic proteins made in E. coli
T3 sequence (Q9Y5S8 1-564): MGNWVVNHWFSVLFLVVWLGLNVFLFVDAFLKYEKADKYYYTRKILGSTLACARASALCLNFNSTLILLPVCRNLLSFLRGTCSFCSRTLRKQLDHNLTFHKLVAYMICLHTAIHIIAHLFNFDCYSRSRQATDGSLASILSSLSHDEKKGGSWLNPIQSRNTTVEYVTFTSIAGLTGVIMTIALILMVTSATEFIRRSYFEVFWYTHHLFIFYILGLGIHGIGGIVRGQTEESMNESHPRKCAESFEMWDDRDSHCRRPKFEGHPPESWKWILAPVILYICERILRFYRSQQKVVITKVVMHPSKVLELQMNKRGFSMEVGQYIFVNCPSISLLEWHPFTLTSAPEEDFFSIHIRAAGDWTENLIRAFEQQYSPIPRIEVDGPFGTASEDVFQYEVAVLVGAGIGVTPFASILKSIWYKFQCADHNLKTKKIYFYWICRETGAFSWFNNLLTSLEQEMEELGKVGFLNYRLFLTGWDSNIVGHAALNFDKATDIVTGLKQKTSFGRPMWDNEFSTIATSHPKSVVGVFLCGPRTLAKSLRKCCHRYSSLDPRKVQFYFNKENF
T3 sequence (P13498 1-195 partner): T1 sequence (P13498 1-195 partner)
Procedure: as §1

[1] = tested on: dehydrogenase domain of csNOX5; experiment: NADPH depletion assay on csNOX5 dehydrogenase domain; assay type: biochemical, Cylindrospermum stagnale; conditions: 10 μM inhibitor; 1 μM purified protein, 250 μM NADPH
Procedure: A series of derivatives were synthesized and tested at 10 μM against the dehydrogenase domain of NOX5 from Cylindrospermum stagnale (C. stagnale, CsNOX5; Figure 2B).
The NADPH depletion assay for IC50 determinations was performed as described[10] with modifications for covalent inhibitors, which require longer incubation times. Briefly, the catalytic activity was measured by monitoring the absorbance at 340 nm with a Cary 100 UV–vis spectrophotometer (Varian). A 1 μM portion of purified protein was added in a final volume of 130 μL of 50 mM HEPES pH 7.5 and supplemented with 300 μM FAD. Inhibitors were added at varying concentrations and incubated for 1 h at 25 °C.

csNOX5 dehydrogenase = experiment: Intact protein mass spectrometry of csNOX5 dehydrogenase; assay type: binding, Cylindrospermum stagnale; conditions: intact protein ESI-qTOF-HRMS
Procedure: Approximately 1 mg mL^-1 protein was incubated with 300 μM FAD and 1 mM 9a at 4 °C for 1 h. A negative control reaction was performed by adding an equal volume of DMSO. Protein was denatured by adding 1% (v/v) formic acid. Chromatographic separation and mass spectrometry analysis were carried out as previously reported.[10] Analyses were carried out by ESI-qTOF-HRMS on an […] qTOF system (Sciex) embedding a Twin Sprayer ESI probe and coupled with an ExcionLC system (Sciex) controlled by SciexOS software v. 3.0.0. The injection volume was 10 μL (10 μg), and chromatographic separation was carried out with a bioZen WidePore C4 column (a 100 mm length, a 2.1 mm diameter, and a 2.6 μm particle size; Phenomenex).

| Compound | IC50 (NOX2) | IC50 (human NOX4) | IC50 (human NOX5) | IC50 (human NOX1) | % INHIBITION csNOX5 DEHYDROGENASE DOMAIN [1] | covalent binding to csNOX5 dehydrogenase active-site cysteine (csNOX5 dehydrogenase) |
| --- | --- | --- | --- | --- | --- | --- |
| C=CC(=O)N1CCN(c2ncnc3c2nnn3Cc2ccccc2)CC1 [Compound 7a, 1-(4-(3-Benzyl-3H-[1,2,3]triazolo[4,5-d]pyrimidin-7-yl)piperazin-1-yl)prop-2-en-1-one] |  |  |  |  | 12.0 ± 3.0% |  |
| Nc1ncnc2c1nnn2Cc1ccccc1 [Compound 4, 3-Benzyl-3H-[1,2,3]triazolo[4,5-d]pirimidin-7-amina] |  |  |  |  | 28.0 ± 9.2% |  |
| C=CC(=O)N1CCC(Nc2ncnc3c2nnn3Cc2ccccc2)CC1 [Compound 7c, 1-(4-((3-Benzyl-3H-[1,2,3]triazolo[4,5-d]pyrimidin-7-yl)amino)piperidin-1-yl)prop-2-en-1-one] |  |  |  |  | 41.2 ± 9.7% | no covalent binding |
| CC(C)(C)OC(=O)N1CCN(c2ncnc3c2nnn3Cc2ccccc2)CC1 [Compound 5, tert-Butyl 4-(3-benzyl-3H-[1,2,3]triazolo[4,5-d]pyrimidin-7-yl)piperazine-1-carboxylate] |  |  |  |  | 16.9 ± 8.2% |  |
| Cl.c1ccc(Cn2nnc3c(N4CCNCC4)ncnc32)cc1 [Compound 6, 3-Benzyl-7-(piperazin-1-yl)-3H-[1,2,3]triazolo[4,5-d]pyrimidine Hydrochloride] |  |  |  |  | 7.0 ± 3.2% |  |
| C=CC(=O)Nc1ccc(Sc2ncnc3c2nnn3Cc2ccccc2)cc1 [Compound 7d, N-(4-((3-Benzyl-3H-[1,2,3]triazolo[4,5-d]pyrimidin-7-yl)thio)phenyl)acrylamide] |  |  |  |  | 28.1 ± 2.8% |  |
| Oc1ncnc2c1nnn2Cc1ccccc1 [Compound 1, 3-benzyl-3H-[1,2,3]triazolo[4,5-d]pyrimidin-7-ol] |  |  |  |  | 0% |  |
| CC(=O)N1CCN(c2ncnc3c2nnn3Cc2ccccc2)CC1 [Compound 7b, 1-(4-(3-Benzyl-3H-[1,2,3]triazolo[4,5-d]pyrimidin-7-yl)piperazin-1-yl)etan-1-one] |  |  |  |  | 40.5 ± 14.8% |  |
| CS(=O)(=O)Oc1ncnc2c1nnn2Cc1ccccc1 [Compound 2] |  |  |  |  | 15.1 ± 2.5% |  |

More lines, main results first:

| IC50 (NOX2) | IC50 (human NOX4) | IC50 (human NOX5) | IC50 (human NOX1) | % INHIBITION csNOX5 DEHYDROGENASE DOMAIN [1] | Compound | covalent binding to csNOX5 dehydrogenase active-site cysteine (csNOX5 dehydrogenase) |
| --- | --- | --- | --- | --- | --- | --- |
| 8.1 ± 0.2 µM | > 100 µM | 4.72 ± 3.7 µM | > 100 µM |  | c1ccc2oc(Sc3ncnc4c3nnn4Cc3ccc(CN4CCCCC4)cc3)nc2c1 [Compound 9d, 2-((3-(4-(Piperidin-1-ylmethyl)benzyl)-3H-[1,2,3]triazolo[4,5-d]pyrimidin-7-yl)thio)benzo[d]oxazole] |  |
| > 100 µM | > 100 µM | > 100 µM | > 100 µM |  | CCCN(C)Cc1ccc(Cn2nnc3c(Sc4nc5ccccc5o4)ncnc32)cc1 [Compound 9b, N-(4-((7-(Benzo[d]oxazol-2-ylthio)-3H-[1,2,3]triazolo[4,5-d]pyrimidin-3-yl)methyl)benzyl)-N-methylpropan-1-amine] |  |
| 12.9 ± 2.2 µM | > 100 µM | 14.3 ± 5.9 µM | > 100 µM |  | CN(Cc1ccccc1)Cc1ccc(Cn2nnc3c(Sc4nc5ccccc5o4)ncnc32)cc1 [Compound 9c, N-(4-((7-(Benzo[d]oxazol-2-ylthio)-3H-[1,2,3]triazolo[4,5-d]pyrimidin-3-yl)methyl)benzyl)-N-methyl-1-phenylmethanamine] |  |
| 1.9 ± 0.2 µM | > 100 µM | 2.06 ± 0.96 µM | > 100 µM |  | c1ccc2oc(Sc3ncnc4c3nnn4Cc3ccc(CN4CCOCC4)cc3)nc2c1 [Compound 9e, 2-((3-(4-(Morpholinomethyl)benzyl)-3H-[1,2,3]triazolo[4,5-d]pyrimidin-7-yl)thio)benzo[d]oxazole] |  |
| 13.8 ± 2.8 µM | > 100 µM | 46.6 ± 9.1 µM | > 100 µM |  | FC1(F)CC2(CCN(Cc3ccc(Cn4nnc5c(Sc6nc7ccccc7o6)ncnc54)cc3)CC2)C1 [Compound 9f, 2-((3-(4-((2,2-Difluoro-7-azaspiro[3.5]nonan-7-yl)methyl)benzyl)-3H-[1,2,3]triazolo[4,5-d]pyrimidin-7-yl)thio)benzo[d]oxazole] |  |
